Source: patent US11352340B2, “Pyridine and pyridimine compounds as PI3K-gamma inhibitors” (Incyte Corporation, priority 2016, dated 2022)
Structures can show the parent of a compound that is named as a salt.

What was measured:
[1] = target: PI3Kγ (p110γ) Recombinant Human Protein (Homo sapiens (Human), UniProt P48736); assay: PI3K-γ Scintillation Proximity Assay; type: biochemical; conditions: read-out: PI3K-gamma SPA IC50
Excerpt: Example B. PI3K-γ Scintillation Proximity Assay
(§1) [γ-^33P]ATP (10 mCi/mL) and Wheat Germ Agglutinin (WGA) YSi SPA Scintillation Beads was purchased from Perkin-Elmer (Waltham, Mass.). Lipid kinase substrate, D-myo-Phosphatidylinositol 4,5-bisphosphate (PtdIns(4,5)P2)D (+)-sn-1,2-di-O-octanoylglyceryl, 3-O-phospho linked (PIP2), CAS 204858-53-7, was purchased from Echelon Biosciences (Salt Lake City, Utah). PI3Kγ (p110γ) Recombinant Human Protein was purchased from Life technology (Grand Island, N.Y.). ATP, MgCl2, DTT, EDTA, MOPS and CHAPS were purchased from Sigma-Aldrich (St. Louis, Mo.).
(§2) The kinase reaction was conducted in polystyrene 384-well Greiner Bio-one white plate from Thermo Fisher Scientific in a final volume of 25 μL. Inhibitors were first diluted serially in DMSO and added to the plate wells before the addition of other reaction components. The final concentration of DMSO in the assay was 2%. The PI3Kγ assay was carried out at room temperature in 20 mM MOPS, pH 6.7, 10 mM MgCl2, 5 mM DTT and CHAPS 0.03%. Reactions were initiated by the addition of ATP, the final reaction mixture consisted of 20 μM PIP2, 2 μM ATP, 0.5 μCi [γ-^33P] ATP, 13 nM PI3Kγ. Reactions were incubated for 120 min and terminated by the addition of 40 μL SPA beads suspended in quench buffer: 163 mM potassium phosphate pH 7.8, 20% glycerol, 25 mM EDTA. The final concentration of SPA beads is 1.0 mg/mL. After the plate sealing, plates were shaken overnight at room temperature and centrifuged at 1500 rpm for 10 min, the radioactivity of the product was determined by scintillation counting on Topcount (Perkin-Elmer). IC50 determination was performed by fitting the curve of percent of the solvent control activity versus the log of the inhibitor concentration using the GraphPad Prism 6.0 software.

[2] = target: PI3Kδ (p110δ/p85α) Recombinant Human Protein (Homo sapiens (Human), UniProt O00329); assay: PI3Kδ Scintillation Proximity Assay; type: biochemical; conditions: read-out: PI3K-delta SPA IC50
Excerpt: Example C. PI3Kδ Scintillation Proximity Assay
as §1, with “PI3Kδ (p110δ/p85α)” for “PI3Kγ (p110γ)”, “Eurofins (St Charles, Mo.).” for “Life technology (Grand Island, N.Y.).”
as §2, with “PI3Kδ” for “PI3Kγ”, “3.4” for “13”, “PI3Kδ.” for “PI3Kγ.”

Chain of PI3Kδ (p110δ/p85α) Recombinant Human Protein (O00329 whole entry): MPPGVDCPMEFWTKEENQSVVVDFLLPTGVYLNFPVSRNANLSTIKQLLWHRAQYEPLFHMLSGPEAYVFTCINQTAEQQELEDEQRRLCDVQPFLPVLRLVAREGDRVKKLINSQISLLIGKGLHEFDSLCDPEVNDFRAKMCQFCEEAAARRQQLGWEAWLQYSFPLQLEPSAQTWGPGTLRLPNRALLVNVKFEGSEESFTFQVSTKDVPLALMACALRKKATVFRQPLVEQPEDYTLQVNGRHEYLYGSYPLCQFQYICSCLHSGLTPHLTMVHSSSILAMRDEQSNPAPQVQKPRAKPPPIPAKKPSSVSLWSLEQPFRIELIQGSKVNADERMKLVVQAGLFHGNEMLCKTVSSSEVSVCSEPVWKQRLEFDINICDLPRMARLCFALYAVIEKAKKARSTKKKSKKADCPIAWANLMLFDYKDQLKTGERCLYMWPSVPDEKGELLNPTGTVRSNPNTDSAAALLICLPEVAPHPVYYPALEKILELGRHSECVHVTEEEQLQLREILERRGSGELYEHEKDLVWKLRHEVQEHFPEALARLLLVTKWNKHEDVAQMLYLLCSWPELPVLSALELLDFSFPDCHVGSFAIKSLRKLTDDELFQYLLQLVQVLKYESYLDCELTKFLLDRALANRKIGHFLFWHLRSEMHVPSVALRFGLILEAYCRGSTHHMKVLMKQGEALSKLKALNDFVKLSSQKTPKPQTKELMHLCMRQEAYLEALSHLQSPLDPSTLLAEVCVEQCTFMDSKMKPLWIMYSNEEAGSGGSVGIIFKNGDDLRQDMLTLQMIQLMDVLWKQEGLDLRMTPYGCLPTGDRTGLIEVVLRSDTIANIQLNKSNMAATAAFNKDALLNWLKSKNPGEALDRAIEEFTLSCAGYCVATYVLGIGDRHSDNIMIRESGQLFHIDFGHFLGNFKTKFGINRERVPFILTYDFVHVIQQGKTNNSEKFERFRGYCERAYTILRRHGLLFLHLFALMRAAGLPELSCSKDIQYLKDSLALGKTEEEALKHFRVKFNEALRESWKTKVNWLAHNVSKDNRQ
Chain of PI3Kδ (p110δ/p85α) Recombinant Human Protein (P27986 whole entry partner): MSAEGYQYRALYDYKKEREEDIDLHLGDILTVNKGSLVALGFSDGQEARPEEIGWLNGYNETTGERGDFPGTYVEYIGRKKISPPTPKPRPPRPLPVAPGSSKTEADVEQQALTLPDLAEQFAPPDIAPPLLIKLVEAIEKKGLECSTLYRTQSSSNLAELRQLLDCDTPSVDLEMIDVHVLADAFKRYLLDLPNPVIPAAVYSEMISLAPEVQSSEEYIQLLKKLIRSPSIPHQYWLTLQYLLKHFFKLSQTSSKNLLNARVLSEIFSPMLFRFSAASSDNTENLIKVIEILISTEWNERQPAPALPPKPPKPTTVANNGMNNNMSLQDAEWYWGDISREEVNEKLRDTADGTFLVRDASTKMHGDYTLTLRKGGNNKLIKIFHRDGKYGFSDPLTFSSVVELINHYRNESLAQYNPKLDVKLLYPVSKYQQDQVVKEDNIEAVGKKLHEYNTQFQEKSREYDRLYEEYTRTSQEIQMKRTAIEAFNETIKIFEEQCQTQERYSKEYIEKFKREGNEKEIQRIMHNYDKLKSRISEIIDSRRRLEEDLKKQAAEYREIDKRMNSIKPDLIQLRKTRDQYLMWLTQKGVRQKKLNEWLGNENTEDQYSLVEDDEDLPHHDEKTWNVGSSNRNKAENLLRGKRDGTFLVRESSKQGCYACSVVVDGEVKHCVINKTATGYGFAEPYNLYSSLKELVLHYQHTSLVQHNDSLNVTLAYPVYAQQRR
Chain of PI3Kγ (p110γ) Recombinant Human Protein (P48736 whole entry): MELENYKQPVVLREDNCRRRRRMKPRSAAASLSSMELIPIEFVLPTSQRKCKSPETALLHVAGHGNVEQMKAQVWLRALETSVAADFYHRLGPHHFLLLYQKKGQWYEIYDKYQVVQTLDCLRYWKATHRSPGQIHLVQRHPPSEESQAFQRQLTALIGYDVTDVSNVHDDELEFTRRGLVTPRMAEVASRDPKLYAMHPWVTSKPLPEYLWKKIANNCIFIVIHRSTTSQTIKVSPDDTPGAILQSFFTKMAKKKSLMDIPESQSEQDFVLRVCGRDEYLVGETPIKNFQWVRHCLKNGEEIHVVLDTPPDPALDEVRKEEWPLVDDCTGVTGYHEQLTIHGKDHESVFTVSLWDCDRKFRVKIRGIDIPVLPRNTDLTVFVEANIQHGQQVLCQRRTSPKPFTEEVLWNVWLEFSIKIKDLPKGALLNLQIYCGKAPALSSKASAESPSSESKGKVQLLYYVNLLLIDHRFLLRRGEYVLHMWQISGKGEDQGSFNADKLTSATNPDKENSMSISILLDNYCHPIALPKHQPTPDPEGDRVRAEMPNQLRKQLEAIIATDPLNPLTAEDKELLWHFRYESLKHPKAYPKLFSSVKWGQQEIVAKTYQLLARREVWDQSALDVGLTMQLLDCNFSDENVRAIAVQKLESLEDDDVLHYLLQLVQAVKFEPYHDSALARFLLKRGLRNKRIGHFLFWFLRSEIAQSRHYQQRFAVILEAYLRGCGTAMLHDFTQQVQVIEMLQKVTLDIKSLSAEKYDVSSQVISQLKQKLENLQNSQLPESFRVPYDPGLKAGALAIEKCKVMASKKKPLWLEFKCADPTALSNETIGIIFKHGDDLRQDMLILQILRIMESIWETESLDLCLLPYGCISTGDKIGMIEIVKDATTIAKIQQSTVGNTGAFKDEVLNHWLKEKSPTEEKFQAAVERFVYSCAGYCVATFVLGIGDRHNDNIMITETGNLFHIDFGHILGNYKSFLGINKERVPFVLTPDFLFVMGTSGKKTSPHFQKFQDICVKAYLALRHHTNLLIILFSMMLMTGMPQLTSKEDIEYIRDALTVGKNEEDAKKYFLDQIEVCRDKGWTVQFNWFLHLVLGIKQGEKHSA

Compound	IC50 [1] [nM]	IC50 [2] [nM]
4-(1-Methyl-3-(trifluoromethyl)-1H-pyrazol-5-yl)-2-(5-phenyl-1H-imidazol-2-yl)pyridine trifluoroacetate salt [Example 13]	> 500	> 500
c1ccc(-c2cnc(-c3cc(-c4cnn(C5CCOC5)c4)ccn3)[nH]2)cc1 (racemic) [Example 60, 2-(5-Phenyl-1H-imidazol-2-yl)-4-(1-(tetrahydrofuran-3-yl)-1H-pyrazol-4-yl)pyridine trifluoroacetate salt]	≤ 500	≤ 500
Cc1[nH]c(-c2cc(-c3cncc(N4CCOCC4)c3)ccn2)nc1C(C)O (racemic) [Example 124, 1-[5-Methyl-2-(5-morpholin-4-yl-3,4′-bipyridin-2′-yl)-1H-imidazol-4-yl]ethanol]	≤ 500	≤ 500
Cc1nc(-c2cc(-c3cncc(C(=O)NCC4CCCO4)c3)ccn2)[nH]c1C (racemic) [Example 167, 2′-(4,5-Dimethyl-1H-imidazol-2-yl)-N-((tetrahydrofuran-2-yl)methyl)-3,4′-bipyridine-5-carboxamide trifluoroacetate salt]	≤ 100	≤ 500
Cc1nc(-c2cc(-c3cncc(C(=O)N4CCC(c5ccccn5)C4)c3)ccn2)[nH]c1C (racemic) [Example 170, (2′-(4,5-Dimethyl-1H-imidazol-2-yl)-3,4′-bipyridin-5-yl)(3-(pyridin-2-yl)pyrrolidin-1-yl)methanone trifluoroacetate salt]	≤ 100	≤ 50
Cc1nc(-c2cc(-c3cncc(C(=O)N4CCC(c5ccccc5)C4)c3)ccn2)[nH]c1C (racemic) [Example 181, 2′-(4,5-Dimethyl-1H-imidazol-2-yl)-5-[(3-phenylpyrrolidin-1-yl)carbonyl]-3,4′-bipyridine trifluoroacetate salt]	≤ 100	≤ 50
Cc1nc(-c2cc(-c3cncc(C(=O)N4CCC(c5ccncc5)C4)c3)ccn2)[nH]c1C (racemic) [Example 182, 2′-(4,5-Dimethyl-1H-imidazol-2-yl)-5-[(3-pyridin-4-ylpyrrolidin-1-yl)carbonyl]-3,4′-bipyridine]	≤ 500	≤ 500
Cc1nc(-c2cc(-c3cncc(C(=O)N4CCCC(c5ccccc5)C4)c3)ccn2)[nH]c1C (racemic) [Example 188, 2′-(4,5-Dimethyl-1H-imidazol-2-yl)-5-[(3-phenylpiperidin-1-yl)carbonyl]-3,4′-bipyridine trifluoroacetate salt]	≤ 500	≤ 500
Cc1nc(-c2cc(C3CCCN(S(=O)(=O)c4ccccc4)C3)ccn2)[nH]c1C (racemic) [Example 215, 2-(4,5-Dimethyl-1H-imidazol-2-yl)-4-[1-(phenylsulfonyl)piperidin-3-yl]pyridine Trifluoroacetate Salt]	≤ 500	> 500
Cc1[nH]c(-c2cc(-c3cncc(N4CCOCC4)c3)ccn2)nc1C(=O)N(C)C1CCOC1 (racemic) [Example 261, N,5-Dimethyl-2-(5-morpholin-4-yl-3,4′-bipyridin-2′-yl)-N-(tetrahydrofuran-3-yl)-1H-imidazole-4-carboxamide]	≤ 500	≤ 500
Clc1ccc(Cn2cc(-c3ccnc(-c4nc(C5CCNC5)c[nH]4)c3)cn2)cc1 (racemic) [Example 306, 4-[1-(4-Chlorobenzyl)-1H-pyrazol-4-yl]-2-(4-pyrrolidin-3-yl-1H-imidazol-2-yl)pyridine Trifluoroacetate Salt]	> 500	> 500
CS(=O)(=O)N1CCC(c2c[nH]c(-c3cc(-c4cnn(Cc5ccc(Cl)cc5)c4)ccn3)n2)C1 (single isomer, unassigned) [Example 304, 4-[1-(4-Chlorobenzyl)-1H-pyrazol-4-yl]-2-{4-[1-(methylsulfonyl)pyrrolidin-3-yl]-1H-imidazol-2-yl}pyridine trifluoroacetate salt]	≤ 100	≤ 500
Cn1cc(-c2ccnc(-c3ncc(-c4ccccc4)[nH]3)c2)cn1 [Example 8, 4-(1-Methyl-1H-pyrazol-4-yl)-2-(5-phenyl-1H-imidazol-2-yl)pyridine trifluoroacetate salt]	≤ 500	≤ 500
Cc1n[nH]c(C)c1-c1ccnc(-c2ncc(-c3ccccc3)[nH]2)c1 [Example 11, 4-(3,5-Dimethyl-1H-pyrazol-4-yl)-2-(5-phenyl-1H-imidazol-2-yl)pyridine trifluoroacetate salt]	> 500	> 500
CCCn1cc(-c2ccnc(-c3ncc(-c4ccccc4)[nH]3)c2)cn1 [Example 12, 2-(5-Phenyl-1H-imidazol-2-yl)-4-(1-propyl-1H-pyrazol-4-yl)pyridine trifluoroacetate salt]	≤ 500	≤ 500
Cn1nc(C(F)(F)F)cc1-c1ccnc(-c2ncc(-c3ccccc3)[nH]2)c1 [Example 14, 4-(1-Methyl-3-(trifluoromethyl)-1H-pyrazol-5-yl)-2-(5-phenyl-1H-imidazol-2-yl)pyridine trifluoroacetate salt]	> 500	> 500
Cn1ccnc1-c1ccnc(-c2ncc(-c3ccccc3)[nH]2)c1 [Example 16, 4-(1-Methyl-1H-imidazol-2-yl)-2-(5-phenyl-1H-imidazol-2-yl)pyridine trifluoroacetate salt]	> 500	> 500
N#Cc1cccc(Cn2cc(-c3ccnc(-c4ncc(-c5ccccc5)[nH]4)c3)cn2)c1 [Example 20, 3-((4-(2-(5-Phenyl-1H-imidazol-2-yl)pyridin-4-yl)-1H-pyrazol-1-yl)methyl)benzonitrile trifluoroacetate salt]	≤ 500	> 500
Clc1cccc(Cn2cc(-c3ccnc(-c4ncc(-c5ccccc5)[nH]4)c3)cn2)c1 [Example 21, 4-(1-(3-Chlorobenzyl)-1H-pyrazol-4-yl)-2-(5-phenyl-1H-imidazol-2-yl)pyridine trifluoroacetate salt]	≤ 500	> 500
c1ccc(-c2cnc(-c3cc(-c4cnn(C5CCNCC5)c4)ccn3)[nH]2)cc1 [Example 25, 2-(5-Phenyl-1H-imidazol-2-yl)-4-(1-(piperidin-4-yl)-1H-pyrazol-4-yl)pyridine trifluoroacetate salt]	> 500	> 500
c1ccc(-c2cnc(-c3cc(-c4cnn(CCN5CCOCC5)c4)ccn3)[nH]2)cc1 [Example 26, 4-(2-(4-(2-(5-Phenyl-1H-imidazol-2-yl)pyridin-4-yl)-1H-pyrazol-1-yl)ethyl)morpholine trifluoroacetate salt]	> 500	> 500
COC(=O)c1ccccc1Cn1cc(-c2ccnc(-c3ncc(-c4ccccc4)[nH]3)c2)cn1 [Example 30, Methyl 2-((4-(2-(5-phenyl-1H-imidazol-2-yl)pyridin-4-yl)-1H-pyrazol-1-yl)methyl)benzoate trifluoroacetate salt]	> 500	> 500
COC(=O)c1cccc(Cn2cc(-c3ccnc(-c4ncc(-c5ccccc5)[nH]4)c3)cn2)c1 [Example 31, Methyl 3-((4-(2-(5-phenyl-1H-imidazol-2-yl)pyridin-4-yl)-1H-pyrazol-1-yl)methyl)benzoate trifluoroacetate salt]	≤ 500	> 500
